Consider three molecules from patent US20220185818A1, “PYRROLOHETEROCYCLIC DERIVATIVE, PREPARATION METHOD THEREFOR, AND APPLICATION THEREOF IN MEDICINE” (Jiangsu Hengrui Medicine Co., Ltd., priority 2019, published 2022).

The structures appear in SMILES notation.

In one series the target is T1, ERK1 (Homo sapiens, UniProt P27361).
T1 construct: purchased R&D 1879-KS-010
The series can be described thus: ERK1 enzyme activity test (ADP-Glo Kinase Assay). Particulars: read-out: IC50 value of the inhibition on ERK1 enzyme activity. The class given is biochemical. The method, then:
(§1) The purpose of this experiment is to detect the inhibitory ability of the compounds on the ERK1 enzyme activity, and evaluate the in vitro activity of the compounds based on the IC50. The ADP-Glo™ Kinase Assay Kit is used in this experiment. Under the action of the enzyme, the substrate is phosphorylated and ADP is produced at the same time. The ADP-Glo reagent is added to remove the unreacted ATP in the reaction system, and the ADP produced by the reaction is detected with the kinase detection reagent. In the presence of the compound, the inhibition rate of the compound is calculated by measuring the signal value.
(§2) ATP was diluted to 300 μM with the buffer. The compound was dissolved in DMSO to prepare a stock solution with an initial concentration of 20 mM, and then Bravo (SGC120TH34702, Agilent Technologies) was used to dilute the stock solution to desired concentrations. Finally, a 30 μL of a mixed solution of enzyme and substrate, and 1 μL, of different concentrations of the compound (the initial concentration is 50 μM, 4-fold dilution) were added to each well of the 384-well plate, and the plate was incubated at 30° C. for 10 minutes, and finally 1 μL of 300 μM ATP solution was added to each well, and the plate was incubated at 30° C. for 2 hours. Then 5 μL of ADP-Glo was added, and the plate was incubated at 30° C. for 40 minutes. Then 10 μL of Kinase detection buffer was added, and the plate was incubated at 30° C. for 40 minutes. The 384-well plate was taken out and placed in a microplate reader (BMG labtech, PHERAstar FS), and the chemiluminescence was measured by the microplate reader.
(§3) Microsoft Excel, Graphpad Prism 5 was used to process and analyze the data.

The target of the next series is T2, ERK2 (Homo sapiens, UniProt P28482).
T2 construct: purchased R&D 1879-KS-010
T2 sequence (P28482 2-360 limits assumed): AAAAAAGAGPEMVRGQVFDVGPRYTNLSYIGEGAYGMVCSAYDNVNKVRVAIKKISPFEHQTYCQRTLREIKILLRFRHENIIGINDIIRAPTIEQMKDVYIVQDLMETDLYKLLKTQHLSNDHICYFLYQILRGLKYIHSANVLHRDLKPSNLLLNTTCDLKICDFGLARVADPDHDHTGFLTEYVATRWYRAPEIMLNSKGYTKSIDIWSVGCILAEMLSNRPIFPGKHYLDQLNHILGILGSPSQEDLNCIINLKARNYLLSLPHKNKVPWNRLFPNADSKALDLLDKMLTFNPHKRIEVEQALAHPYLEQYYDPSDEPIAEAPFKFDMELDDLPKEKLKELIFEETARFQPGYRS
The series can be described thus: ERK2 enzyme activity test (ADP-Glo Kinase Assay). The class given is biochemical. Conditions: read-out: IC50 value of the inhibition on ERK2 enzyme activity. As for the experimental part:
as §1, with “ERK2” for “ERK1”, “by” for “with”
as §2, with “to 500” for “to 300”, “a 3” for “a 30”, “1 μL” for “1 μL,”, “of 500” for “of 300”, “of kinase” for “of Kinase”
as §3

The next series has as its system Colo205 cells. Briefly: In vitro proliferation inhibition test on Colo205 tumor cells (CellTiter-Glo). Particulars: Homo sapiens, COLO 205, 72 h; 3 days of culture, CTG; read-out: IC50 value of the inhibition on in vitro Colo205 tumor cell proliferation. The class given is cell-based. As for the experimental part: The purpose of this experiment is to test the inhibitory activity of the compounds on the proliferation of Colo205 cells (CCL-222, ATCC) in vitro. The cells were treated in vitro with different concentrations of the compounds. After 3 days of culture, the cell proliferation was tested with CTG (CellTiter-Glo® Luminescent Cell Viability Assay, Promega, Catalog No. G7573) reagent, and the in vitro activity of the compounds was evaluated according to the IC50 value.
In the following, taking the in vitro proliferation inhibition test method of Colo205 cells as an example, the method in the present disclosure for testing the in vitro proliferation inhibitory activity of the compounds of the present disclosure is described. This method is also applicable to, but not limited to, the in vitro proliferation inhibitory activity test on other tumor cells.
Colo205 cells were digested, centrifuged and then resuspended. The single cell suspension was mixed well, and the density of viable cells was adjusted to 5.0×10^4 cells/ml with cell culture medium (RPMI1640+2% FBS), and 95 μl/well was added to a 96-well cell culture plate. Only 100 μl medium was added to the peripheral wells of the 96-well plate. The culture plate was incubated in an incubator for 24 hours (37° C., 5% CO2).
The compound was dissolved in DMSO and prepared into a stock solution with an initial concentration of 20 mM. The initial concentration of the small molecule compound was 2 mM, and then 4-fold diluted into 9 points, and the 10th point is DMSO. Another 96-well plate was taken and 90 μl of cell culture medium (RPMI1640+2% FBS) was added to each well, then 10 μl of different concentrations of the test sample was added to each well. The mixture was mixed well, and then 5 μL of different concentrations of the test sample was added to the cell culture plate with duplicate well for each sample. The culture plate was incubated in an incubator for 3 days (37° C., 5% CO2). The 96-well cell culture plate was taken out, 50 μL CTG solution was added to each well, and the plate was incubated for 10 minutes at room temperature. In a microplate reader (BMG labtech, PHERAstar FS), chemiluminescence was measured with the microplate reader.
as §3

Series [1] is described as follows: Pharmacokinetics assay in mice. The format is in vivo. Conditions: female, mouse, po, C57 mice, intragastrical administration, 2 mg/kg, plasma; for Vd/F: read-out: Apparent distribution volume Vz/F; for AUC: read-out: Area under curve AUC; for CL/F: read-out: Clearance CLz/F; for half-life: read-out: Half-life T1/2 (converted); for Cmax: read-out: Plasma concentration Cmax; for MRT: read-out: Residence time MRT. As for the experimental part:
Mice were used as test animals. […] The pharmacokinetic behavior of the compounds of the present disclosure was studied in mice, and the pharmacokinetic characteristics were evaluated.
2.2 Test Animals Thirty-six C57 mice (female, equally divided into 4 groups) were purchased from Shanghai Jiesijie Laboratory Animal Co., LTD.
A certain amount of the test compound was weighed and dissolved by the addition of 5% of DMSO and 5% of tween 80. Then 90% of normal saline were added to prepare a 0.1 mg/mL colorless, clear and transparent solution.
After an overnight fast, C57 mice were intragastrically administered the test compound at a dosage of 2 mg/kg and a volume of 0.2 ml/10 g.
The mice were intragastrically administered the test compounds. 0.1 ml of blood was taken before the administration and at 0.25, 0.5, 1.0, 2.0, 4.0, 6.0, 8.0, 11.0 and 24.0 hours after the administration. The samples were stored in heparinized tubes, and centrifuged for 10 minutes at 3500 rpm to separate the blood plasma. The plasma samples were stored at −20° C.
The content of the test compound in the plasma of mice after intragastrical administration of the test compound at different concentrations was determined: 25 μL of […] plasma at each time point after the administration was taken, followed by the addition of 50 μL of the internal standard camptothecin solution (National Institutes for Food and Drug Control of China) and 200 μL of acetonitrile. The resulting solution was vortex-mixed for 5 minutes, and centrifuged for 10 minutes (4000 rpm). 4 μL of the supernatant was taken from the plasma samples for LC/MS/MS analysis.

T1 sequence (P27361 whole entry): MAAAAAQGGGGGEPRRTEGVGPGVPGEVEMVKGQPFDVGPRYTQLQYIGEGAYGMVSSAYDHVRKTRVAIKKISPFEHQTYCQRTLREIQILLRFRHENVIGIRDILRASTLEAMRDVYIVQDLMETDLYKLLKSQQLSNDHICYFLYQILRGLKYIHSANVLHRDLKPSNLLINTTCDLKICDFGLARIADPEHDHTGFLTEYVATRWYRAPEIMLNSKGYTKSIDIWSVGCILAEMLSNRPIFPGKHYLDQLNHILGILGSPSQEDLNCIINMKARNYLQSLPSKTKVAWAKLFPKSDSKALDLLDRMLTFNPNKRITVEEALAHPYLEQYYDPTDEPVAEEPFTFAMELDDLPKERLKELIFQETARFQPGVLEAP

Turning to `Cn1nccc1Nc1nccc(-c2cc3n(c2)C(=O)N([C@H](CO)c2ccc(Cl)c(F)c2)C3)n1` [Example 20, (S)-2-(1-(3-Fluoro-4-chlorophenyl)-2-hydroxyethyl)-6-(2-((1-methyl-1H-pyrazol-5-yl)amino)pyrimidin-4-yl)-1H-pyrrolo[1,2-c]imidazol-3(2H)-one], the IC50 at ERK1 came out at 30 nM. The IC50 at ERK2 amounted to 18 nM. Moreover, the IC50 in the series on Colo205 cells amounted to 68 nM. For the same molecule, in series [1], the Vd/F was 1.41 L/kg, the AUC was found to be 7630 ng·h/mL, the CL/F was 4.37 mL/min/kg and the half-life is 3.73 h. For the same molecule, in series [1], the Cmax is 1540 ng/mL and the MRT is 4.95 h.
`Cn1nccc1Nc1nccc(-c2cc3n(c2)C(=O)N([C@H](CO)c2cccc(Cl)c2)C3)n1` [Example 10, (S)-2-(1-(3-Chlorophenyl)-2-hydroxyethyl)-6-(2-((1-methyl-1H-pyrazol-5-yl)amino)pyrimidin-4-yl)-1,2-dihydro-3H-pyrrolo[1,2-c]imidazol-3-one]: the IC50 at ERK1 came to 5 nM. At ERK2, the IC50 was determined as 7 nM. The IC50 with Colo205 cells came out at 62 nM. In series [1], the Vd/F came out at 3.07 L/kg, the AUC is 3440 ng·h/mL, the CL/F stood at 9.69 mL/min/kg and the half-life is 3.66 h. Further, in series [1], the Cmax turned out to be 1020 ng/mL and the MRT worked out at 3.47 h.
As to `Cc1cccc([C@@H](CO)N2Cc3cc(-c4ccnc(Nc5ccnn5C)n4)cn3C2=O)c1` [Example 15, (S)-2-(2-Hydroxy-1-(m-tolyl)ethyl)-6-(2-((1-methyl-1H-pyrazol-5-yl)amino)pyrimidin-4-yl)-1H-pyrrolo[1,2-c]imidazol-3(2H)-one], the IC50 at ERK1 came to 5 nM. Also, the IC50 on ERK2 came out at 5 nM. Further, in the series with Colo205 cells, the IC50 stood at 55 nM. Further, in series [1], the Vd/F is 2.13 L/kg, the AUC was determined as 3700 ng·h/mL, the CL/F is 9 mL/min/kg and the half-life is 2.74 h. For the same molecule, in series [1], the Cmax stood at 816 ng/mL and the MRT is 3.3 h.
